Assay results from the SangsterLogP compilation.

SMILES | logP
Nc1ccc(-c2nnc(Cc3ccccc3)o2)cc1 | 2.82
Nc1ccc(-c2nnc(-c3ccccc3)o2)cc1 | 2.91
Cc1nnc(-c2ccc(N)cc2)o1 | 1.63
CCCc1nnc(-c2ccc(N)cc2)o1 | 2.27
CCc1nnc(-c2ccc(N)cc2)o1 | 1.92
CCCc1nnc(-c2ccc(N)cc2)s1 | 2.53
CCCc1noc(-c2ccc(N)cc2)n1 | 2.61
CCCCc1nnc(-c2ccc(N)cc2)o1 | 2.66
CCCCC(=O)c1ccc(N)cc1 | 2.48
Cc1nc(-c2ccc(N)cc2)no1 | 1.71
Cc1noc(-c2ccc(N)cc2)n1 | 1.89
Nc1ccc(-c2nc(-c3ccccc3)no2)cc1 | 3.48
CCC(=O)c1ccc(N)cc1 | 1.65
CCCc1nc(-c2ccc(N)cc2)no1 | 2.54
CCc1noc(-c2ccc(N)cc2)n1 | 2.22
CC(C)c1noc(-c2ccc(N)cc2)n1 | 2.57
CCc1nc(-c2ccc(N)cc2)no1 | 2.13
Nc1ccc(-c2nc(Cc3ccccc3)no2)cc1 | 3.24
CC(C)c1nnc(-c2ccc(N)cc2)o1 | 2.23
CC(C)(C)c1nnc(-c2ccc(N)cc2)o1 | 2.53
CCc1nsc(-c2ccc(N)cc2)n1 | 2.39
